In US7119077B1, “Multimeric forms of members of the steroid/thyroid superfamily of receptors with the ultraspiracle receptor” (The Salk Institute for Biological Studies, priority 1990, dated 2006):
“Also recorded” adds a separate entry of the source.

Tests used:
[1] = molecular target: T1, EcR/usp (Drosophila melanogaster, UniProt P34021); assay: Cotransfection CAT reporter assay with EcR and/or usp expression vectors in CV1 cells; type: cell-based, monkey kidney cells (CV1); settings: CV1 cells transfected with EcR alone, ΔMTV-EcRE5-CAT reporter, 40 μM
T1 construct: expressed in transfected cells; host or cells: CV1 monkey kidney cells
T1 sequence (P34021 1-878): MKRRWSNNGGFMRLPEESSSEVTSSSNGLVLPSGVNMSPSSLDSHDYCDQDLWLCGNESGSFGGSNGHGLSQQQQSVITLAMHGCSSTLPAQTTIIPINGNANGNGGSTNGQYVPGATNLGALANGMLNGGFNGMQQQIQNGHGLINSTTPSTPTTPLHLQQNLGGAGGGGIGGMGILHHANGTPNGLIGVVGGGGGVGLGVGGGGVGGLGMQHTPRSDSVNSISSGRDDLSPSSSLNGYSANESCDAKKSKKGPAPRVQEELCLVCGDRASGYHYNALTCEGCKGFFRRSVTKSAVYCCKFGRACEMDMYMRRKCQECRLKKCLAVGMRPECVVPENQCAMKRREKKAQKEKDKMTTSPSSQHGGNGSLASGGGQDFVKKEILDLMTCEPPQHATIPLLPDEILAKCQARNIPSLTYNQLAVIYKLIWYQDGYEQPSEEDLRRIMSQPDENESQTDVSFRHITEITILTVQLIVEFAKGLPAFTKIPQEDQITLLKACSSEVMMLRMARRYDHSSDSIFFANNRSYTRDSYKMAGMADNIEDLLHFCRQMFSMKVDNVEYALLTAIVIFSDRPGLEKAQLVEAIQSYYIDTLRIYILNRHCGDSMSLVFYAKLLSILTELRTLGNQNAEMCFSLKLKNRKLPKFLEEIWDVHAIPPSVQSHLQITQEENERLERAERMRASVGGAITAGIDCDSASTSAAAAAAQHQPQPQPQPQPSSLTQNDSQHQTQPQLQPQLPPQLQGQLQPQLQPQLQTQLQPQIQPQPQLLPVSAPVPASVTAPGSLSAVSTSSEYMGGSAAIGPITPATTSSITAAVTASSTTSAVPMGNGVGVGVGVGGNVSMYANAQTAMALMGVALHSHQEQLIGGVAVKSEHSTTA
Description: (§1) Transfection was performed with calcium-phosphate precipitation method as described previously [Umesono et al., Nature 336:262–264 (1989)]. CV1 monkey kidney cells were maintained in Dulbecco's modified Eagle's medium (DMEM) supplemented with 10% calf bovine serum. The cells were transfected for 8–9 hours and then the DNA precipitates were washed away and replaced with fresh medium with 10% charcoal-resin double stripped fetal bovine serum. 20-hydroxy-ecdysone (Sigma; 10 mg/ml in ethanol), or ethanol alone was then given to the cells. 24–28 hours later, the cells were harvested. Beta-galactosidase (βGal) activity was measured and a normalized amount of extract was used for CAT assay (Umesono et al. (1989) supra]. The following amount of plasmid DNA was included in the 10 cm plate transfection: 250 ng each of CMX-EcR and RSV-GEcR; 500 ng of CMX-usp; 5 μg ΔMTV-EcRE5-CTA; 5 μg of βGal internal control plasmid CH111 (a derivative of CH110, Promega). The amount of CMX plasmid was kept constant in each transfection by adding CMX-luciferase. PGEM4 was added to bring the total amount of plasmid DNA to 15 μg per plate.
(§2) Ecdysone response in CV1 cells was determined by using an ecdysone-responsive reporter gene (ΔMTV-EcRE5-CAT), which contains the same core hsp27-EcRE motif tested in DNA binding assay described earlier. The chloramphenicol acetyl transferase (CAT) activity induced by ecdysone was measured in the presence of different combinations of transfected EcR and usp expression vectors. CAT activity is expressed in FIG. 2 as the percentage of conversion which is normalized against the level in EcR alone at the presence of ecdysone assigned as one (column 1, shaded rectangle). The final concentration of 20-hydroxy-ecdysone (Sigma) is 40 μM. […] Cotransfection of EcR and usp together is shown in column 3 and the induction of CAT activity could be observed by about 3 fold.
(§3) To test whether usp can complement the EcR activity as it did in the DNA binding assay, usp expression vector was cotransfected with EcR into CV1 cells. Cotransfection of usp with EcR indeed was able to confer a significant response to 20-OH-ecdysone (over 3 fold, FIG. 2A). […] The level of induction by EcR and usp in CV1 cells is significant but somewhat lower than expected compared with the interaction in DNA binding assay.

[2] = tested on: EcR/usp; assay: as above; type: cell-based, monkey kidney cells (CV1); settings: 40 μM
Description: as §1, §2, §3

## 20-Hydroxyecdysone [20-OH-ecdysone]
[1]
  ecdysone responsiveness (CAT activity): does not respond
[1]; listed as 20-hydroxy-ecdysone
  ecdysone responsiveness (CAT activity): failed to confer responsiveness
[2]; CV1 cells transfected with usp alone, ΔMTV-EcRE5-CAT reporter
  ecdysone responsiveness (CAT activity): does not respond; also recorded: did not result in ecdysone responsiveness
[2]; CV1 cells, parental ΔMTV-CAT reporter without EcRE
  ecdysone responsiveness (CAT activity): did not result in ecdysone responsiveness
[2]; CV1 cells, parental ΔMTV-CAT reporter without EcRE, listed as ecdysone
  ecdysone responsiveness (CAT activity): does not respond
